In patent USRE40246E1, “Method for the suppression of viral growth” (John Hopkins University, priority 1994, dated 2008):
“And” between values parts separate entries of the source, which are not always exact repeats. Equal values may be shown once. Read-outs that look alike come from different tables or passages of the source.

Tests used:
[1] = system: HSV-1; assay: Drug sensitivity against HSV-1 in Vero cells at different viral passages; format: cell-based; conditions: for IC50: Human alphaherpesvirus 1, Vero
Excerpt: Virus which recovered from medium of each passage at IC50 drug concentration were used to infect the subsequent passage of the cells.

[2] = system: HSV-Sm44-ACVg; assay: Drug sensitivity against ACV sensitive strain of HSV-1; format: cell-based; conditions: Human alphaherpesvirus 1, read-out: IC50, HSV-Sm44-ACVg
[3] = system: HSV-18m44-CV4r; assay: Drug sensitivity against ACV resistant strain of HSV-1; format: cell-based
[4] = system: HSV-1; assay: Topical treatment of HSV-1 infected skin of guinea pigs; format: in vivo; conditions: guinea pig; for suppression of HSV-1 replication in infected skin: topical five times per day for five days, ABPS 2 and 4 mg/ml, tetramethoxyl NDGA 60 mg/ml, acyclovir 60 mg/ml
Experimental: It is also noted that tetramethoxyl NDGA 4N has been used in an animal system, i.e. to treat HSV infected skin of guinea pigs.
Two male guinea pigs (350 gm body weight) were used in the guinea pig experiment. The back skin of the animal was shaved and equally divided into six patches. Each skin patch was pinched with seven-pin needles and HSV-1 suspension was applied topically to infect each punched area. Twenty-four hours after infection, three agents (ABPS, 2 mg/ml, ABPS 4 mg/ml, tetramethoxyl NDGA, 4N 60 mg/ml and acyclovir 60 mg/ml) were applied to the infected areas five times per day for five days. Picture (FIG. 8) was taken 96 hours following infection.

[5] = system: Tat regulated transactivation (Tat-TRS) of HIV-1 LTR promoter; assay: Secreted alkaline phosphatase (SEAP) assay for Tat transactivation in cotransfected COS cells; format: cell-based; conditions: for EC50: Human immunodeficiency virus 1, COS, 48 h; for Inhibition of Tat-induced SEAP expression: read at 30 minutes
Excerpt: To screen for inhibitors for Tat regulated transactivation (Tat-TRS), the secreted placental alkaline phosphatase (SEAP) reporter gene is put under the control of HIV-1 LTR promoter in the plasmid pBC12HIV/SEAP. The Tat-coded activity is supplied by a second plasmid construct pBC12/CMV/t2. […] An inhibitor should cause reduction of the SEAP activity which is due to inhibition of the expression of the SEAP mRNA via transactivation of the HIV-1 LTR promoter by Tat protein (Tat-TRS).
For the SEAP assay, test materials were dissolved in 10% DMSO solution made in calcium/magnesium-free PBS. The suspension was centrifuged and the stock solution (10 mg/ml) was filter-sterilized using a Millex®-GS […] filter (Millipore). Appropriate dilutions of the stock solution were prepared in a final DMSO concentration of 0.2% in PBS to obtain the various concentrations of test compounds.
Briefly, a day before DNA transfection, Linbro® 24 flat bottom well of 17-mm diameter plates were pretreated with 0.5 ml sterile solution of 0.1% gelatin. The plates were kept in the hood for 1 hour (all transfection steps were performed in the hood, unless otherwise stated). The gelatin solution was aspirated and the plates were washed with 0.5 ml of IMDM supplemented with 10% fetal calf serum and antibiotics (complete medium). […] DNA transfection was performed at 30-50% cell confluency. The stock solution of the Transfectam reagent, DOGS, was prepared according to the manufacturer's advice at 1 mg/0.380 ml ([…] or 3.4 mM) in 10% (v/v) ethanol in distilled water.
The transfection cocktail consisted of two solutions prepared in sterile tubes: • a) Solution A contained a sterile 150 mM NaCl solution+plasmid DNAs (non selected/selected gene in 2:1 ratio): 0.35 μg of pBC12/HIV/SEAP per well+0.175 μg of pBC12/CMB/t2 (coding for Tat function) per well. • b) Solution B Contained an equal volume of 150 mM NaCl and a volume of Transfectame determined to be 6 times the total amount of DNAS. Solutions A and B were homogenized and immediately mixed.
Ten minutes were allowed for the reaction to proceed. Meanwhile, the growth medium was removed from the subconf luent COS cells and 300 μl (100 μl of complete IMDM+200 μl serum-free medium) were added to each well. The transfection cocktail was dispensed to the wells in equal volume. Control samples containing no DNA were similarly treated and received sterile 150 mM NaCl solution alone. All samples were incubated for 10 and 12 hours after which 700 μl of complete growth medium were added. Test compounds prepared in 5% DMSO/Ca-Mg-free PBS (for non-water-soluble materials) were immediately added at various concentrations to the wells. Drug-untreated control samples received 5% DMSO/PBS solution alone (final DMSO concentration of 0.2%). All samples were then incubated for an additional 48 hours after which 300 μl of each culture supernatant was removed for SEAP analysis.
Briefly, a 250-μl aliquot was removed from COS cell culture supernatants, heated at 65° C. for 5 minutes to selectively inactivate endogenous phosphatase (SEAP is heat stable) and centrifuged in a microfuge for 2 minutes. One hundred μl of 2×SEAP assay buffer (1.0 M diethanolamine, pH 9.8; 0.5 mM MgCl2; 10 mm L-homoarginine) were added to 100-μl aliquot of the samples. The solution was mixed and transferred into a 96-well flat-bottom culture dish (Corning). Twenty μl of pre-warmed substrate solution (120 mM p-nitrophenylphosphate dissolved in 1×SEAP assay buffer) were dispensed with a multipipeter into each well containing the reaction mixture. A405 of the reaction was read at 5-minute intervals at 37° C. for 60 minutes using an EL340i microplate reader (Bio-tek Instruments, Inc.) with 5-second automatic shakings before each reading. The change in absorbance was plotted against time in the standard assay of SEAP induction.

[6] = system: uninfected CEM-SS cells; assay: Soluble-formazan (XTT) assay, viability of uninfected CEM-SS cells; format: cell-based; conditions: Homo sapiens, read-out: IC50, inhibitory or toxic concentration reducing XTT formazan production in uninfected cultures to 50%
[7] = system: HIV-1; assay: microbe, parasite or virus in culture; conditions: Human immunodeficiency virus 1, CEM-SS, read-out: EC50, concentration that protects XTT formazan production in infected culture to 50% of uninfected, untreated cells
Experimental: Consequently, creosote bush extract was tested at the National Cancer Institute (NCI) for inhibition of HIV-1 cytopathic effects using the soluble-formazan assay (Weislow et al., JNCI 81: 577-586, 1989, the entire contents of which are hereby incorporated by reference and relied upon). In principle, CEM-SS cells (ATCC, Rockville, Md.) are cocultivated with HIV-producing H9 cells. Viruses infect the host CEM-SS cells, replicate and kill most of the CEM-SS cells in a week. If the drug inhibits HIV production, CEM-SS cells are protected from HIV-induced cell death.
In practice, triplicate samples of CEM-SS cells (5000) were plated in 96-well microtiter plate. Appropriate concentrations of test compounds were added in a final volume of 100 μl calcium/magnesium-free PBS in 5% DMSO. Control samples received the compound medium (PBS) alone. Five minutes later, 500 highly infectious HIV-1 producing II9 cells or normal H9 cells were added to the wells containing the appropriate drug concentrations. The microtiter plates were incubated at 37° C. in 95% O2/5% CO2 for 6 days after which a 50-μl mixture of XTT and N-methylphenazonium methosulfate (PMS) was added. The plates were reincubated for additional 4 hours for the color development (XTT formazan production). The plates were sealed, their contents were mixed by automatic shaking and the OD450 of samples was determined in a microplate reader. […]

[8] = system: HSV-1; assay: Inhibition of HSV-1 replication in Vero cells; format: cell-based; conditions: Human alphaherpesvirus 1, Vero
[9] = system: HSV-1 ICP4; assay: Inhibition of HSV-1 ICP4 transactivation in Vero cells; format: cell-based; conditions: Human alphaherpesvirus 1, Vero
[10] = system: Vero cells; assay: Inhibition of growth of Vero cells; format: cell-based; conditions: Chlorocebus sabaeus
[11] = read-out: IC50 against HSV-1 in Vero Cells, Passage 1
[12] = read-out: IC50 against HSV-1 in Vero Cells, Passage 2
[13] = read-out: IC50 against HSV-1 in Vero Cells, Passage 3
[14] = read-out: IC50 against HSV-1 in Vero Cells, Passage 4
[15] = read-out: IC50 against HSV-1 in Vero Cells, Passage 5
[16] = read-out: IC50 against HSV-1 in Vero Cells, Passage 10
[17] = Human alphaherpesvirus 1, read-out: IC50, HSV-18m44-CV4r
[18] = read-out: EC50 (concentration exhibiting 50% inhibition) of Tat regulated HIV transactivation, SEAP expression
[19] = read-out: EC50 of Tat regulated HIV transactivation, SEAP expression
[20] = Mal 4 at 9.5 μm, NDGA at 9.9 μm
[21] = Mal 4 at 31.3 μm, NDGA at 32.6 μm
[22] = Mal 4 at 62.7 μm, NDGA at 65.2 μm

Nc1nc2c(ncn2COCCO)c(=O)[nH]1 [ACV, acyclovir, reference compound]
IC50 [1, 11]: 7.5 µM | IC50 [1, 12]: 37.8 µM | IC50 [1, 13]: > 88.8 µM | IC50 [1, 14]: 138 µM | IC50 [1, 15]: > 220 µM | IC50 [1, 16]: 440 µM | IC50 ([1]; read-out: concentration required to inhibit HSV-1, 10th passage): 440 µM | IC50 ([1]; read-out: concentration required to inhibit HSV-1, first passage): 7.5 µM | IC50 [2]: < 6.9 µM | IC50 [3, 17]: 118 µM | suppression of HSV-1 replication in infected skin [4]: effective

COc1ccc(CC(C)C(C)Cc2ccc(O)c(O)c2)cc1O (stereo not shown) [Mal 4, 1-(3,4-dihydroxyphenyl)-4-(3-hydroxy-4-methoxyphenyl)-2,3-dimethylbutane]
EC50 [5, 18]: 8 µg/mL | EC50 [5, 19]: 25 µM | Inhibition of Tat-induced SEAP expression [5, 20]: 13.6% | Inhibition of Tat-induced SEAP expression [5, 21]: 60.4% | Inhibition of Tat-induced SEAP expression [5, 22]: 92% | Inhibition of Tat-induced SEAP expression ([5]; Mal 4 at 95 μm, NDGA at 99 μm): 100% | IC50 [6]: 100 µg/mL and 325 µM | EC50 [7]: 4.25 µg/mL and 13.4 µM

CC(Cc1ccc(O)c(O)c1)C(C)Cc1ccc(O)c(O)c1 (stereo not shown) [NDGA, 1,4-bis-(3,4-dihydroxyphenyl)-2,3-dimethylbutane]
EC50 [5, 18]: 6 µg/mL | EC50 [5, 19]: 20 µM | Inhibition of Tat-induced SEAP expression [5, 20]: 17.0% | Inhibition of Tat-induced SEAP expression [5, 21]: 73.8% | Inhibition of Tat-induced SEAP expression [5, 22]: 88.1% | Inhibition of Tat-induced SEAP expression ([5]; Mal 4 at 95 μm, NDGA at 99 μm): 92.9%

COc1ccc(C[C@@H](C)[C@@H](C)Cc2ccc(OC)c(OC)c2)cc1OC [Tetramethoxyl NDGA, tetramethoxyl nordihydroguaiaretic acid]
IC50 [8]: 7.7 µM | inhibition at 0.437 µM ([8]; 0.437 μM): < 0% | inhibition at 0.875 µM ([8]; 0.875 μM): < 0% | inhibition at 1.75 µM ([8]; 1.75 μM): < 0% | inhibition at 3.5 µM ([8]; 3.5 μM): 20% | inhibition at 7 µM ([8]; 7 μM): 40% | inhibition at 14 µM ([8]; 14 μM): 97.5% | IC50 [9]: 33 µM | inhibition at 20 µM ([9]; 20 μM): 8% | inhibition at 30 µM ([9]; 30 μM): 30% | inhibition at 40 µM ([9]; 40 μM): 35% | inhibition at 50 µM ([9]; 50 μM): 52% | inhibition at 60 µM ([9]; 60 μM): 64% | inhibition at 70 µM ([9]; 70 μM): 68% | inhibition at 80 µM ([9]; 80 μM): 78% | IC50 [10]: 142 µM | inhibition at 4.37 µM ([10]; 4.37 μM): 1.27% | inhibition at 8.75 µM ([10]; 8.75 μM): 3.18% | inhibition at 17.5 µM ([10]; 17.5 μM): 7.64% | inhibition at 35 µM ([10]; 35 μM): 7.64% | inhibition at 70 µM ([10]; 70 μM): 9.55% | inhibition at 140 µM ([10]; 140 μM): 44% | inhibition at 280 µM ([10]; 280 μM): 79.6% | IC50 ([1]; read-out: IC50 against HSV-1, essentially the same from first passage to tenth passage, first to tenth passage in vero cells): ~10 µM | IC50 [1, 11]: 11.7 µM | IC50 [1, 12]: 4.4 µM | IC50 [1, 13]: 8.2 µM | IC50 [1, 14]: 5.9 µM | IC50 [1, 15]: 9.9 µM | IC50 [1, 16]: 10 µM | drug resistance of HSV virus toward the drug ([1]; following ten viral passages in vero cells): showed no drug resistance | IC50 [2]: 6.9 µM | IC50 [3, 17]: 6.9 µM | IC50 ([3]; Human alphaherpesvirus 1, read-out: IC50 against acyclovir resistant strain (HSV-1 SM44-CV4r)): 6.9 µM | HSV-1 growth at infected skin areas ([4]; 60 mg/ml, daily topical treatment, five days): eliminated HSV-1 growth completely | suppression of HSV-1 replication in infected skin [4]: effective
